# Assay results reported in patent US20050107430A1, “Antimicrobial and antiviral compounds” (priority 2003, published 2005).
# Read-outs that look alike come from different tables or passages of the source.
# Test system: Mycobacterium tuberculosis
# Details: resistant strains
compound,measurement,setting,value
"c1ccc2c(c1)ccc1c3ccc(NCCCCN4CCCCC4)cc3ccc21 [Tx-5, N-(2′-chrysenyl)-4-(1′-piperidinyl)-butane-1,4-diamine]","MIC, M. tuberculosis resisant. strains",2 wk,2 µg/mL
same,"MIC, M. tuberculosis resisant. strains",4 wk,4 µg/mL
